According to US7544497B2, “Compositions for manipulating the lifespan and stress response of cells and organisms” (President and Fellows of Harvard College, priority 2003, dated 2009):

Experiments:
Human 293 cells = assay: Survival of 293 cells (Coulter counter); assay type: cell-based; settings: 50 micromolar
Procedure: Human 293 were grown to exponential phase under standard conditions and subjected to a dose of compound (50 micromolar) for 96 hours. The number of live cells each time point was counted using a Coulter counter.

rDNA recombination = assay: Ribosomal DNA recombination frequency (loss of ADE2 marker); assay type: cell-based, S. cerevisiae; settings: SIR2-dependent
C. elegans = C. elegans lifespan assay; assay type: in vivo
Procedure: Thus, the presence of resveratrol in the growth media of C. elegans extends their lifespan.
Bristol N2 (Caenorhabditis Genetics Center) was used as the wild-type strain. The sir-2.1 mutant strain was generated by backcrossing VC199 (sir-2.1 (ok434)) to N2 four times. Cultures were grown on standard NGM media and maintained on E. coli strain OP50. For the lifespan assays, synchronized animals were transferred to treatment plates as young adults (2 d after hatching, day 0 of assay), and were transferred to fresh treatment plates every 2 days for the first 6 to 8 days of the assay. […] For some lifespan trials, heat-killed OP50 were used as a food source. OP50 cultures were heated to 65° C. for 30 minutes, then pelleted and resuspended in 1/10 volume in S Basal supplemented with 10 mM MgSO4. In all assays, worms were monitored daily for mortality by gently probing with a platinum pick. Assays were performed at 24° C.

recombinant dSir2 = molecular target: T1, recombinant dSir2 (Drosophila melanogaster, UniProt Q9VK34); assay: dSir2 deacetylation assay (Fluor de Lys); assay type: biochemical, D. melanogaster; settings: dose-dependent; 25 μM NAD+, 10 μM FdL
T1 sequence (Q9VK34 1-823): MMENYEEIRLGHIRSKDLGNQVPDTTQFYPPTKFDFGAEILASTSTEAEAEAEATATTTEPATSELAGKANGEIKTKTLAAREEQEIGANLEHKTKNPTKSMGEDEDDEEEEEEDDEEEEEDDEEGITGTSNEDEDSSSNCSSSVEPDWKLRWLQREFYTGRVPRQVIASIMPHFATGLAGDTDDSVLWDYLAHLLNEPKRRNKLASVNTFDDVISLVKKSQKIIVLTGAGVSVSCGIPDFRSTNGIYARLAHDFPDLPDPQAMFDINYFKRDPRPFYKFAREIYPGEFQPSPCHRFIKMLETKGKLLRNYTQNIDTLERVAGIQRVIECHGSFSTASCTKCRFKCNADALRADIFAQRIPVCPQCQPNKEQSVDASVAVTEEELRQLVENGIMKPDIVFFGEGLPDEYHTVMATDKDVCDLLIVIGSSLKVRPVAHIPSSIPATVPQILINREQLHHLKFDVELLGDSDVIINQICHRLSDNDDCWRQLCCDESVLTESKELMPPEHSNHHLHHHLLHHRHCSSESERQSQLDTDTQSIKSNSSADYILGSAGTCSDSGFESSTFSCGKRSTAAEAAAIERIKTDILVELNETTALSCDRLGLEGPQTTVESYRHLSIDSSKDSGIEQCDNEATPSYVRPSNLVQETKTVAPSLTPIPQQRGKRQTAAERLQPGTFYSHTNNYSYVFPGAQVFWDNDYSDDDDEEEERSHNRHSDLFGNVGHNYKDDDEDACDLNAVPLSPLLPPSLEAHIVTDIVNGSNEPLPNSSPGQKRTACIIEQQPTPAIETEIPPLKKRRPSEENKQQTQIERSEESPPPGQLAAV
Procedure: His6-tagged recombinant SIR-2.1 and dSir2 were purified from E. coli BL21(DE3) plysS cells harboring either pET28a-sir-2.1 or pRSETc-dSir2 plasmids. Cells were grown in LB medium containing kanamycin (50 μg/mL) for pET28a-sir-2.1 or ampicillin (100 μg/ml) and chloramphenicol (25 μg/ml) for pRSETc-dSir2 at 30° C. (dSir2) or 37° C. (SIR-2.1) to an OD600 of 0.6-0.8.
From 0.1 to 1 μg of SIR-2.1 and 1 μg of dSir2 were used per deacetylation assay as previously described with modifications (SIR-2.1: 200 μM NAD^+, 10 μM Fluor de Lys, FdL; dSir2: 25 μM NAD^+, 10 μM FdL)^26. […] Drosophila S2 cells were grown in Schneider media with fetal calf serum at 23-28° C., seeded at 9×10^4 cells/well, grown overnight and then exposed to 1 μM TSA, 500 μM polyphenols, and 200 μM FdL for 2 hr. […] Unless otherwise indicated all initial rate measurements were means of three or more replicates obtained with single incubation times, at which point 5% or less of the substrate initially present was deacetylated.

Human recombinant SIRT2 = molecular target: T2, Human recombinant SIRT2 (Homo sapiens, UniProt Q8IXJ6); assay: SIRT2 deacetylation assay (Fluor de Lys-SIRT2); assay type: biochemical; settings: 25 μM Fluor de Lys-SIRT2, 25 μM NAD+, 20 minutes, 37° C.
T2 sequence (Q8IXJ6 1-389): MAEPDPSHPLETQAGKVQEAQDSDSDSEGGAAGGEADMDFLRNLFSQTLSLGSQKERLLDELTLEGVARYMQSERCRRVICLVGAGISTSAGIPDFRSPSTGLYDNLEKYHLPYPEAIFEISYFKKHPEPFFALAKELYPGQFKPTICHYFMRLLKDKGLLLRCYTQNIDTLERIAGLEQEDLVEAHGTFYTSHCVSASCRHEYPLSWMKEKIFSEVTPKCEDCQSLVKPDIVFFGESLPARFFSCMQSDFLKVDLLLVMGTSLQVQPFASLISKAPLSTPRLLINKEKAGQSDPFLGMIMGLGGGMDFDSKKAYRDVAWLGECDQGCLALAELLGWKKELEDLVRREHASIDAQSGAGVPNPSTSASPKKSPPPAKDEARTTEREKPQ
From the text: Yeast Sir2 and human SIRT1 are very homologous and differ from human SIRT2 by the addition of an N-terminal domain that is absent in SIRT2. […] Thus, based on the difference in structure of SIRT1 and SIRT2, i.e., the absence of an N-terminal domain (see FIG. 8), it is believed that the N-terminal domain of SIRT1 and Sir2 is necessary for activation by the compounds described herein. In particular, it is likely that the activator compounds described herein interact with the N-terminal portion of sirtuins. The N-terminal portion of SIRT1 that is necessary for the action of the compounds is from about amino acid 1 to about amino acid 176, and that of Sir2 is from about amino acid 1 to about amino acid 175.

SMILES: Oc1ccc(/C=C/c2cc(O)cc(O)c2)cc1 [Resveratrol, 3,5,4′-Trihydroxy-trans-stilbene]
- Survival of 293 cells (Human 293 cells; 0 h): 100%
- Survival of 293 cells (Human 293 cells; 48 h): 5%
- Survival of 293 cells (Human 293 cells; 96 h): 0%
- reduction of the frequency of rDNA recombination (rDNA recombination): ~60%
- lifespan extension (C. elegans; sir-2.1 mutants, 100 μM, heat-killed OP50, not statistically significant): 5.2%
- lifespan extension (C. elegans; sir-2.1 mutants, 100 μM, live OP50, P=0.81): 3.3%
- lifespan extension (C. elegans; wild-type N2, 100 μM, live OP50): 12.6%
- lifespan extension (up to) (C. elegans; wild-type worms, 100 μM, heat-killed or live E. coli): up to 15%
- stimulation of deacetylation, dSir2 (up to) (recombinant dSir2): ≤ 2.4 fold
- effect of increasing concentrations on SIRT2 activity (Human recombinant SIRT2): decrease
